# Measured values published in patent US20150038545A1, “HYDROXYPHENYL PYRROLE COMPOUNDS CONTAINING AN HYDROXAMIC ACID AS HDAC INHIBITORS AND MEDICINAL APPLICATIONS THEREOF” (UNIVERSIDAD DEL PAÍS VASCO, priority 2011, published 2015).
# Key:
# [1] = system: HT-1080; experiment: Cancer cell growth inhibition (CellTiter-Glo), HT-1080; format: cell-based; conditions: Homo sapiens; Fibrosarcoma, HT-1080, 72 h treatment
# Procedure: (§1) Cell culture-based assays were used to evaluate the ability of compounds of the invention to inhibit cancer cell growth.
# (§2) Cells were obtained from the American Type Culture Collection (ATCC). Cells were cultured at 37° C. with 5% CO2 in the appropriate growth medium (see table below), and harvested respectively during the logarithmic growth period and counted with hemocytometer. The cell viability was examined by trypan blue exclusion. Cell concentrations were adjusted to 5.56×10^4 cells/ml with respective medium.
# (§3) Stock solutions of test compounds and positive drugs Doxorubicin (Zhejiang, Haizheng, China), Cisplatin (Nanjing Zhiyao, China) and Mitomycin (Zhejiang, Haizheng, China) were prepared in dimethyl sulphoxide (DMSO) or PBS at 20 mM.
# (§4) In order to determine the IC50 for each compound, experiments were carried out in 96-well plates and the cell lines seeded at a density of 5,000 cells/well. […] All treatments were performed in triplicate. 10 μl of drug solution was added to each well and incubated for 72 hours. At the end of the incubation, 100 μl of the CellTiter-Glo Reagent were added to each well and the contents were mixed for 2 munites on an orbital shaker to induce cell lysis. The plate was incubated at room temperature for 10 minutes to stabilize luminiscent signal, and luminiscent was recorded. […] In order to calculate IC50 values, dose-responsive curves were fitted using nonlinear regression model with a sigmoidal dose response.
# [2] = system: SW620; experiment: Cancer cell growth inhibition (CellTiter-Glo), SW620; format: cell-based; conditions: Homo sapiens, SW-620; Colorectal Cancer, SW620, 72 h treatment
# Procedure: as §1, §2, §3, §4
# [3] = system: Colo205; experiment: Cancer cell growth inhibition (CellTiter-Glo), Colo205; format: cell-based; conditions: Homo sapiens, COLO 205; Colorectal Cancer, Colo205, 72 h treatment
# Procedure: as §1, §2, §3, §4
# [4] = system: SK-HEP-1; experiment: Cancer cell growth inhibition (CellTiter-Glo), SK-HEP-1; format: cell-based; conditions: Homo sapiens, SK-HEP1; Liver Cancer, SK-HEP-1, 72 h treatment
# Procedure: as §1, §2, §3, §4
# [5] = system: BT474; experiment: Cancer cell growth inhibition (CellTiter-Glo), BT474; format: cell-based; conditions: Homo sapiens, BT-474; Breast Cancer, BT474, 72 h treatment
# Procedure: as §1, §2, §3, §4
# [6] = system: MIAPaCa-2; experiment: Cancer cell growth inhibition (CellTiter-Glo), MIAPaCa-2; format: cell-based; conditions: Homo sapiens, MIA PaCa-2; Pancreatic Cancer, MIAPaCa-2, 72 h treatment
# Procedure: as §1, §2, §3, §4
# [7] = system: HepG2; experiment: Cancer cell growth inhibition (CellTiter-Glo), HepG2; format: cell-based; conditions: Homo sapiens; Liver Cancer, HepG2, 72 h treatment
# Procedure: as §1, §2, §3, §4
# [8] = system: MDA-MB-231; experiment: Cancer cell growth inhibition (CellTiter-Glo), MDA-MB-231; format: cell-based; conditions: Homo sapiens; Breast Cancer, MDA-MB-231, 72 h treatment
# Procedure: as §1, §2, §3, §4
# [9] = system: 143b; experiment: Cancer cell growth inhibition (CellTiter-Glo), 143b; format: cell-based; conditions: Homo sapiens, Osteosarcoma, 72 h treatment
# Procedure: as §1, §2, §3, §4
# [10] = system: HCT-116; experiment: Cancer cell growth inhibition (CellTiter-Glo), HCT-116; format: cell-based; conditions: Homo sapiens; Colorectal Cancer, HCT-116, 72 h treatment
# Procedure: as §1, §2, §3, §4
# [11] = system: PC-3; experiment: Cancer cell growth inhibition (CellTiter-Glo), PC-3; format: cell-based, Human; conditions: Prostate Cancer, PC-3, 72 h treatment
# Procedure: as §1, §2, §3, §4
# [12] = system: SK-MEL-5; experiment: Cancer cell growth inhibition (CellTiter-Glo), SK-MEL-5; format: cell-based, Human; conditions: Melanoma, SK-MEL-5, 72 h treatment
# Procedure: as §1, §2, §3, §4
# [13] = system: 786-O; experiment: Cancer cell growth inhibition (CellTiter-Glo), 786-O; format: cell-based, Human; conditions: Kidney Cancer, 72 h treatment
# Procedure: as §1, §2, §3, §4
# [14] = system: K562; experiment: Cancer cell growth inhibition (CellTiter-Glo), K562; format: cell-based, Human; conditions: CML, K562, 72 h treatment
# Procedure: as §1, §2, §3, §4
# [15] = system: LoVo; experiment: Cancer cell growth inhibition (CellTiter-Glo), LoVo; format: cell-based, Human; conditions: Colorectal Cancer, 72 h treatment
# Procedure: as §1, §2, §3, §4
# [16] = system: NCI-H1703; experiment: Cancer cell growth inhibition (CellTiter-Glo), NCI-H1703; format: cell-based, Human; conditions: Lung Cancer, NCI-H1703, 72 h treatment
# Procedure: as §1, §2, §3, §4
# [17] = system: Calu-6; experiment: Cancer cell growth inhibition (CellTiter-Glo), Calu-6; format: cell-based, Human; conditions: Lung Cancer, Calu-6, 72 h treatment
# Procedure: as §1, §2, §3, §4
# [18] = system: SW480; experiment: Cancer cell growth inhibition (CellTiter-Glo), SW480; format: cell-based, Human; conditions: Colorectal Cancer, SW480, 72 h treatment
# Procedure: as §1, §2, §3, §4
# [19] = system: MCG803; experiment: Cancer cell growth inhibition (CellTiter-Glo), MCG803; format: cell-based, Human; conditions: Gastric Cancer, MCG803, 72 h treatment
# Procedure: as §1, §2, §3, §4
# [20] = system: SK-BR-3; experiment: Cancer cell growth inhibition (CellTiter-Glo), SK-BR-3; format: cell-based, Human; conditions: Breast Cancer, SK-BR-3, 72 h treatment
# Procedure: as §1, §2, §3, §4
# [21] = system: DU145; experiment: Cancer cell growth inhibition (CellTiter-Glo), DU145; format: cell-based, Human; conditions: Prostate Cancer, DU145, 72 h treatment
# Procedure: as §1, §2, §3, §4
# [22] = system: PANC-1; experiment: Cancer cell growth inhibition (CellTiter-Glo), PANC-1; format: cell-based, Human; conditions: Pancreatic Cancer, PANC-1, 72 h treatment
# Procedure: as §1, §2, §3, §4
# [23] = system: KB; experiment: Cancer cell growth inhibition (CellTiter-Glo), KB; format: cell-based, Human; conditions: Oral Cancer, 72 h treatment
# Procedure: as §1, §2, §3, §4
# [24] = system: NCI-H460; experiment: Cancer cell growth inhibition (CellTiter-Glo), NCI-H460; format: cell-based, Human; conditions: Lung Cancer, NCI-H460, 72 h treatment
# Procedure: as §1, §2, §3, §4
# [25] = system: Bx-PC-3; experiment: Cancer cell growth inhibition (CellTiter-Glo), Bx-PC-3; format: cell-based, Human; conditions: Pancreatic Cancer, Bx-PC-3, 72 h treatment
# Procedure: as §1, §2, §3, §4
# [26] = system: U-87MG; experiment: Cancer cell growth inhibition (CellTiter-Glo), U-87MG; format: cell-based, Human; conditions: Glioblastoma, 72 h treatment
# Procedure: as §1, §2, §3, §4
# [27] = system: SK-OV-3; experiment: Cancer cell growth inhibition (CellTiter-Glo), SK-OV-3; format: cell-based, Human; conditions: Ovarian Cancer, SK-OV-3, 72 h treatment
# Procedure: as §1, §2, §3, §4
# [28] = system: HT-29; experiment: Cancer cell growth inhibition (CellTiter-Glo), HT-29; format: cell-based, Human; conditions: Colorectal Cancer, HT-29, 72 h treatment
# Procedure: as §1, §2, §3, §4
# [29] = system: CNE2; experiment: Cancer cell growth inhibition (CellTiter-Glo), CNE2; format: cell-based, Human; conditions: Nasopharyngeal, CNE2, 72 h treatment
# Procedure: as §1, §2, §3, §4
# [30] = system: OVCAR3; experiment: Cancer cell growth inhibition (CellTiter-Glo), OVCAR3; format: cell-based, Human; conditions: Ovarian Cancer, OVCAR3, 72 h treatment
# Procedure: as §1, §2, §3, §4
# [31] = system: NCI-N87; experiment: Cancer cell growth inhibition (CellTiter-Glo), NCI-N87; format: cell-based, Human; conditions: Gastric Cancer, NCI-N87, 72 h treatment
# Procedure: as §1, §2, §3, §4
# [32] = system: A375; experiment: Cancer cell growth inhibition (CellTiter-Glo), A375; format: cell-based, Human; conditions: Melanoma, A375, 72 h treatment
# Procedure: as §1, §2, §3, §4
# [33] = system: A549; experiment: Cancer cell growth inhibition (CellTiter-Glo), A549; format: cell-based, Human; conditions: Lung Cancer, A549, 72 h treatment
# Procedure: as §1, §2, §3, §4
# [34] = system: RPMI-8226; experiment: Cancer cell growth inhibition (CellTiter-Glo), RPMI-8226; format: cell-based, Human; conditions: Orthotopic Multiple Myeloma, RPMI-8226, 72 h treatment
# Procedure: as §1, §2, §3, §4
# [35] = system: MCF-7; experiment: Cancer cell growth inhibition (CellTiter-Glo), MCF-7; format: cell-based, Human; conditions: Breast Cancer, MCF-7, 72 h treatment
# Procedure: as §1, §2, §3, §4
# [36] = system: Hep3B; experiment: Cancer cell growth inhibition (CellTiter-Glo), Hep3B; format: cell-based, Human; conditions: Liver Cancer, 72 h treatment
# Procedure: as §1, §2, §3, §4
# [37] = system: LNCaP; experiment: Cancer cell growth inhibition (CellTiter-Glo), LNCaP; format: cell-based, Human; conditions: Prostate Cancer, 72 h treatment
# Procedure: as §1, §2, §3, §4
# [38] = system: BGC-823; experiment: Cancer cell growth inhibition (CellTiter-Glo), BGC-823; format: cell-based, Human; conditions: Gastric Cancer, BGC-823, 72 h treatment
# Procedure: as §1, §2, §3, §4
# [39] = system: DLD-1; experiment: Cancer cell growth inhibition (CellTiter-Glo), DLD-1; format: cell-based, Human; conditions: Colorectal Cancer, DLD-1, 72 h treatment
# Procedure: as §1, §2, §3, §4
# [40] = system: SK-MES-1; experiment: Cancer cell growth inhibition (CellTiter-Glo), SK-MES-1; format: cell-based, Human; conditions: Lung Cancer, SK-MES-1, 72 h treatment
# Procedure: as §1, §2, §3, §4
smiles,measurement,setting,value
"COc1cccc2c1C(=O)c1c(O)c3c(c(O)c1C2=O)C[C@@](O)(C(=O)CO)C[C@@H]3O[C@H]1C[C@H](N)[C@H](O)[C@H](C)O1 [Doxorubicin, reference compound]",IC50,[1],0.27 µM
"CO[C@@]12[C@H](COC(N)=O)C3=C(C(=O)C(C)=C(N)C3=O)N1C[C@@H]1N[C@@H]12 [Mitomycin, reference compound]",IC50,[2],1.22 µM
same,IC50,[3],2.67 µM
same,IC50,[4],8.12 µM
same,IC50,[5],30.3 µM
same,IC50,[6],0.63 µM
same,IC50,[7],0.91 µM
same,IC50,[8],19.8 µM
same,IC50,[9],0.64 µM
same,IC50,[10],0.82 µM
"N.N.[Cl][Pt][Cl] [Cisplatin, reference compound]",IC50,[11],59.5 µM
same,IC50,[12],5.81 µM
same,IC50,[13],3.23 µM
same,IC50,[14],14.8 µM
same,IC50,[15],10.4 µM
same,IC50,[16],7.56 µM
same,IC50,[17],2.45 µM
same,IC50,[18],46.6 µM
same,IC50,[19],5.08 µM
same,IC50,[20],3.18 µM
same,IC50,[21],1.02 µM
same,IC50,[22],22 µM
same,IC50,[23],10.4 µM
same,IC50,[24],1.6 µM
same,IC50,[25],4.73 µM
same,IC50,[26],4.76 µM
same,IC50,[27],9.88 µM
same,IC50,[28],12.2 µM
same,IC50,[29],6.58 µM
same,IC50,[30],4.47 µM
same,IC50,[31],4.21 µM
same,IC50,[32],3.16 µM
same,IC50,[33],8.22 µM
same,IC50,[34],4.57 µM
same,IC50,[35],22.2 µM
same,IC50,[36],3.96 µM
same,IC50,[37],6.51 µM
same,IC50,[38],1.15 µM
same,IC50,[39],11.3 µM
same,IC50,[40],9.49 µM
